Columns and labels:
[1] = in the presence or absence of NADPH; cited from earlier work
AEP [2] = target: T1, AEP (Homo sapiens, UniProt Q99538); experiment: Time course inactivation assay of AEP; type: biochemical; settings: nonlinear progress curves
T1 sequence (Q99538 18-323 limits assumed): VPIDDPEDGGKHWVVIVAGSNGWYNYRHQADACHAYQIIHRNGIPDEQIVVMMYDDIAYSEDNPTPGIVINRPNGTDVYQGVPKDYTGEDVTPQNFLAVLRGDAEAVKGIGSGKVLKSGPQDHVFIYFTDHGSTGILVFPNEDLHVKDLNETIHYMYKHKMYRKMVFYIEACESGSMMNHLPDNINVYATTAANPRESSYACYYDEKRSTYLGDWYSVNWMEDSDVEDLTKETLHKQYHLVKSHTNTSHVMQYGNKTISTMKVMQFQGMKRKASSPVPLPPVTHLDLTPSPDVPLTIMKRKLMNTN

AEP [3] = target: T1, AEP; experiment: Inhibition kinetics assay of AEP
[4] = system: major cytochrome P450 isozymes; settings: cited from earlier work
CaCo-2 cells = experiment: Caco-2 permeability assay; type: in vitro ADME
cathepsin-L = cathepsin-L (Homo sapiens, UniProt P07711); experiment: Inhibition specificity assay, cathepsin-L; type: biochemical
[5] = system: endogenous MMP-2 cleavage; experiment: Gelatin zymography: endogenous MMP-2 cleavage in MDA-MB-231 cells; type: cell-based, human; settings: MDA-MB-231, 1, 2, 5 and 10 μM
[6] = Toxicity observations in treated tumor-bearing mice; type: in vivo, nude mice; settings: 3 or 10 mg/kg oral, 42 days
MDA-MB-231 cells [7] = experiment: In vivo spontaneous metastasis assay; design: species or system nude mice; settings: 42 days
MDA-MB-231 cells [8] = experiment: Cell proliferation/viability; type: cell-based, human; settings: MDA-MB-231, doses of the MMP-2 cleavage experiment (1-10 μM)
purified, active AEP = target: T2, purified, active AEP (Homo sapiens, UniProt Q99538); experiment: SAR analysis: residual activity of purified, active AEP; settings: 1 μM compound, 50 nM AEP, 5 μM substrate peptide
T2 sequence (Q99538 18-323 limits assumed): T1 sequence (Q99538 18-323 limits assumed)

AEP [9] = target: T1, AEP; experiment: IC50 assay against pure AEP; type: biochemical

Sequence of cathepsin-L (P07711 114-333, species assumed): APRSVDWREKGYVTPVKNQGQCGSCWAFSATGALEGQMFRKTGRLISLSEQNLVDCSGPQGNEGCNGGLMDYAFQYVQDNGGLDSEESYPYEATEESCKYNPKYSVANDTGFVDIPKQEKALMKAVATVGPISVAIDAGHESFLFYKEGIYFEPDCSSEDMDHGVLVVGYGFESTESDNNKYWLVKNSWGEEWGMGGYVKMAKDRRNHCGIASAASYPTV

Cn1c(=O)[nH]c(=O)c2c1nc(S)n2CC(O)COc1ccc(Cl)cc1 (centres unmarked) [compound 38]
stability in liver microsomes [1]: stable | binding behaviour from time course inactivation (AEP [2]): slow-binding inhibitor | mechanism of inhibition (AEP [3]): competitively inhibits | inhibition of major cytochrome P450 isozymes [4]: did not significantly inhibit | Caco-2 cell permeability (in words) (CaCo-2 cells): minimal

CCn1c(=O)c2c(nc(S)n2C)n(C)c1=O [compound 38u]
inhibition of cathepsin-L (cathepsin-L): able to inhibit | endogenous MMP-2 cleavage [5]: inhibited in a dose-dependent manner | complete blood count (CBC) versus vehicle [6]: no significant difference | pathological examination of major organs (kidney, liver, bone marrow) [6]: did not exhibit any significant amount of toxicity | size of the liver versus vehicle [6]: remained similar | size of the spleen versus control [6]: slight increase | toxicity by body weight versus control [6]: no significant toxicity | number of metastatic lung nodules (MDA-MB-231 cells [7]; 3 mg/kg oral gavage): significantly decreased | lung metastasis (nodules) (MDA-MB-231 cells [7]; 10 mg/kg oral gavage): almost completely prevented | mammary tumor weight or volume versus control (MDA-MB-231 cells [7]; 3 or 10 mg/kg oral, data not shown): no significant difference | cell viability (MDA-MB-231 cells [8]): not affected

Cn1c(=O)[nH]c(=O)c2c1nc(S)n2C[C@H](O)COc1ccccc1 [compound 38k]
loss in activity relative to parent compound 38 (purified, active AEP): > 2 fold

Cn1c(=O)c2c(nc(S)n2C)n(C)c1=O [38p]
inhibition of cathepsin-L (cathepsin-L): able to inhibit | increased potency against AEP compared to compound 38 (AEP [9]): about 2 fold | IC50 against AEP (AEP [9]; 10 μM Cbz-Ala-Ala-Asn-AMC, 50 nM AEP): submicromolar

Source: article PMC5871875 (Journal of medicinal chemistry, 2017)
